For the assay, the target named is ALP in normal human articular chondrocytes (NHACs). Briefly: Alkaline Phosphatase (ALP) activity assay (staining and quantitation) in NHACs, prevention of chondrocyte hypertrophy. Format: cell-based. The settings on record: human IL-1 beta 10 ng/mL, 12 days; for IC50: Fast Blue RR staining, high content imaging, read-out: ALP in NHAC IC50; for ALP in NHAC (% Efficacy) / Emax: value in parentheses; for Emax: read-out: ALP in NHAC (% Efficacy). Summed up: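 Hypertrophy readout: ALP staining (Fast Blue RR with naphthol AS-MX phosphate) plus Hoechst, imaged at 561 nm and/or quantified by high-content multiwavelength cell scoring. Before staining, NHACs (7,500/well, DMEM/10% FBS) were exposed to compound for 5 h, then cultured with 10 ng/mL IL-1β for 12 days at 37 °C.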

This note sets out measurements from US12257243B2, “5-hydroxy-7-oxabicyclo[2.2.1]heptane-2-carboxamide derivatives for inducing chondrogenesis for treating joint damage” (NOVARTIS AG, priority 2018, dated 2025).

Usually IC50 stands for the concentration at which inhibition is half-maximal.

SMILES strings stand for the structures. Read-outs that look alike come from different tables or passages of the source. A value given as a limit tells only on which side of the number the result lay.

In the case of `O=C(Nc1ccc(C(F)(F)F)c(Cl)n1)[C@@H]1[C@@H](c2cccc(C(F)(F)F)c2)[C@H]2O[C@@H]1C[C@@H]2O` (single isomer, unassigned) [Example 25a, (1R,2R,3S,4R,5S)—N-(6-chloro-5-(trifluoromethyl)pyridin-2-yl)-5-hydroxy-3-(3-(trifluoromethyl)phenyl)-7-oxabicyclo[2.2.1]heptane-2-carboxamide or (1S,2S,3R,4S,5R)—N-(6-chloro-5-(trifluoromethylpyridin-2-yl)-5-hydroxy-3-(3-(trifluoromethyl)phenyl)-7-oxabicyclo[2.2.1]heptane-2-carboxamide], the IC50 turned out to be 0.55 µM and the “ALP in NHAC (% Efficacy)” value amounted to 89%.
For the compound `Cn1nc(C(F)(F)F)cc1[C@H]1[C@H]2O[C@H](C[C@@H]2O)[C@@H]1C(=O)Nc1ccc(C(F)(F)F)cc1` (racemic) [Example 62, rac-(1R,2R,3S,4R,5S)-5-hydroxy-3-(1-methyl-3-(trifluoromethyl)-1H-pyrazol-5-yl)-N-(4-(trifluoromethyl)phenyl)-7-oxabicyclo[2.2.1]heptane-2-carboxamide], under “Chondrocyte, 288 h”, the IC50 was found to be 16 µM and the Emax is 73%.
For `CCOc1cc(C(F)(F)F)cc(NC(=O)[C@@H]2[C@@H](c3cccc(C(F)(F)F)c3)[C@H]3O[C@@H]2C[C@@H]3O)n1` (racemic) [Example 9, rac-(1R 2R,3S,4R,5S)—N-(6-ethoxy-4-(trifluoromethyl)pyridin-2-yl-5-hydroxy-3-(3-(trifluoromethyl)phenyl)-7-oxabicyclo[2.2.1]heptane-2-carboxamide], in that order: 12 µM and 108%.
The like results for `O=C(Nc1ccc(C(F)(F)F)nc1)[C@@H]1[C@@H](c2cccc(C(F)(F)F)c2)[C@H]2O[C@@H]1C[C@@H]2O` (racemic) [Example 27, rac-(1R,2R,3S,4R,5S)-5-hydroxy-3-(3-(trifluoromethyl)phenyl)-N-(6-(trifluoromethyl)pyridin-3-yl)-7-oxabicyclo[2.2.1]heptane-2-carboxamide] were, in that order, more than 30 µM and 38%.
On to `Cn1nc(C(F)(F)F)cc1[C@H]1[C@H]2O[C@H](C[C@@H]2O)[C@@H]1C(=O)Nc1cc(C(F)(F)F)ccn1` (racemic) [Example 74, rac-(1R,2R,3,4R,5)-5-hydroxy-3-(1-methy-3-(trifluoromethyl)-1H-pyrazol-5-yl)-N-(4-(trifluoromethyl)pyridin-2-yl-7-oxabicyclo[2.2.1]heptane-2-carboxamide], for which, for the setting “Chondrocyte, 288 h”, the IC50 amounted to 11 µM and the Emax was 64%.
The like results for `Cn1cc([C@H]2[C@H]3O[C@H](C[C@@H]3O)[C@@H]2C(=O)Nc2ccc(Cl)c(C(F)(F)F)c2)c(C(F)(F)F)n1` (racemic) [Example 53, rac-(1R,2R,3S,4R,5S)—N-(4-chloro-3-(trifluoromethyl)phenyl)-5-hydroxy-3-(1-methyl-3-(trifluoromethyl)-1H-pyrazol-4-yl)-7-oxabicyclo[2.2.1]heptane-2-carboxamide] were, in that order, 7.2 µM and 86%.
For `O=C(Nc1ccc(C(F)(F)F)c(F)c1)[C@@H]1[C@@H](c2cccc(C(F)(F)F)c2)[C@H]2O[C@@H]1C[C@@H]2O` (racemic) [Example 3, rac-(1R,2R,3S,4R,5S)—N-(3-fluoro-4-(trifluoromethyl)phenyl)-5-hydroxy-3-(3-(trifluoromethyl)phenyl)-7-oxabicyclo[2.2.1]heptane-2-carboxamide], for the setting “Chondrocyte, 288 h”, the half-maximal inhibitory concentration (IC50) came out at 12 µM and the Emax amounted to 77%.
`Cn1nc(C(F)(F)F)cc1[C@H]1[C@H]2O[C@H](C[C@@H]2O)[C@@H]1C(=O)Nc1cc(C(F)(F)F)ccc1C#N` (single isomer, unassigned) [Example 72b, (1R,2R,3S,4R,5S)—N-(2-cyano-5-(trifluoromethyl)phenyl)-5-hydroxy-3-(1-methyl-3-(trifluoromethyl)-1H-pyrazol-5-yl)-7-oxabicyclo[2.2.1]heptane-2-carboxamide or (1S,2S,3R,4S,5R)—N-(2-cyano-5-(trifluoromethyl)phenyl)-5-hydroxy-3-(1-methyl-3-(trifluoromethyl)-1-pyrazol-5-yl)-7-oxabicyclo[2.2.1]heptane-2-carboxamide]: where the note is “listed as 72?”, the IC50 worked out at 1.8 µM and the “ALP in NHAC (% Efficacy)” value amounted to 88%.
In the case of `COc1ccc(NC(=O)[C@@H]2[C@@H](c3cn(C)nc3C(F)(F)F)[C@H]3O[C@@H]2C[C@@H]3O)cc1C(F)(F)F` (racemic) [Example 31, rac-(1R,2R,3S,4R,5S)-5-hydroxy-N-(4-methoxy-3-(trifluoromethyl)phenyl)-3-(1-methyl-3-(trifluoromethyl)-1H-pyrazol-4-yl)-7-oxabicyclo[2.2.1]heptane-2-carboxamide], for the setting “Chondrocyte, 288 h”, the IC50 was 3.1 µM and the Emax came to 102%.
The like results for `O=C(Nc1ccc(C(F)(F)F)c(Cl)c1)[C@@H]1[C@@H](c2cccc(C(F)(F)F)c2)[C@H]2O[C@@H]1C[C@@H]2O` (racemic) [Example 2, rac-(1R,2R,3S,4R,5S)—N-(3-chloro-4-(trifluoromethylphenyl)-5-hydroxy-3-(3-(trifluoromethyl)phenyl)-7-oxabicyclo[2.2.1]heptane-2-carboxamide] were, in that order, 8.4 µM and 102%.
Take `CC(C)n1cc([C@H]2[C@H]3O[C@H](C[C@@H]3O)[C@@H]2C(=O)Nc2cc(C(F)(F)F)ccc2F)c(C(F)(F)F)n1` (racemic) [Example 85, rac-(1R,2R,3S,4R,5S)—N-(2-fluoro-5-(trifluoromethyl)phenyl)-5-hydroxy-3-(1-isopropyl-3-(trifluoromethyl-1H-pyrazol-4-yl-7-oxabicyclo[2.2.1]heptane-2-carboxamide]: under “Chondrocyte, 288 h”, the IC50 is more than 30 µM and the Emax turned out to be 44%.
Consider `COc1cc([C@H]2[C@H]3O[C@H](C[C@@H]3O)[C@@H]2C(=O)Nc2ccc(C(F)(F)F)cc2)ccn1` (racemic) [Example 67, rac-(1R,2R,3S,4R,5S)-5-hydroxy-3-(2-methoxypyridin-4-yl)-N-(4-(trifluoromethyl)phenyl)-7-oxabicyclo[2.2.1]heptane-2-carboxamide], for which, for the setting “Chondrocyte, 288 h”, the IC50 was more than 30 µM and the Emax came out at 27%.
As for `O=C(Nc1cccc(C(F)(F)F)c1)[C@@H]1[C@@H](c2ccc(C(F)(F)F)nc2)[C@H]2O[C@@H]1C[C@@H]2O` (racemic) [Example 82, rac-(1R,2R,3S,4R,5S)-5-hydroxy-N-(3-(trifluoromethyl)phenyl)-3-(6-(trifluoromethyl)pyridin-3-yl)-7-oxabicyclo[2.2.1]heptane-2-carboxamide], for the setting “Chondrocyte, 288 h”, the IC50 is 4.6 µM and the Emax was 78%.
For `Cn1cc([C@H]2[C@H]3O[C@H](C[C@@H]3O)[C@@H]2C(=O)Nc2cc(C(F)(F)F)c(Cl)cn2)c(C(F)(F)F)n1` (racemic) [Example 36, rac-(1R,2R,3S,4R,5S)—N-(5-chloro-4-(trifluoromethyl)pyridin-2-yl)-5-hydroxy-3-(1-methyl-3-(trifluoromethyl)-1H-pyrazol-4-yl)-7-oxabicyclo[2.2.1]heptane-2-carboxamide], in that order: 3.6 µM and 92%.
Regarding `Cc1ccc(NC(=O)[C@@H]2[C@@H](c3cc(C(F)(F)F)nn3C)[C@H]3O[C@@H]2C[C@@H]3O)cc1C(F)(F)F` (racemic) [Example 60, rac-(1R,2R,3S,4R,5S)-5-hydroxy-3-(1-methyl-3-(trifluoromethyl)-1H-pyrazol-5-yl)-N-(4-methyl-3-(trifluoromethyl)phenyl)-7-oxabicyclo[2.2.1]heptane-2-carboxamide], under “Chondrocyte, 288 h”, the IC50 is 13 µM and the Emax was determined as 81%.
For `COc1cc([C@H]2[C@H]3O[C@H](C[C@@H]3O)[C@@H]2C(=O)Nc2ccc(C(F)(F)F)c(Cl)c2)ccn1` (racemic) [Example 79, rac-(1R,2R,3S,4R,5S)—N-(3-chloro-4-trifluoromethyl)phenyl)-5-hydroxy-3-(2-methoxypyridin-4-yl)-7-oxabicyclo[2.2.1]heptane-2-carboxamide], in that order: 12 µM and 75%.
For `CCOc1ccc(NC(=O)[C@@H]2[C@@H](c3cn(C)nc3C(F)(F)F)[C@H]3O[C@@H]2C[C@@H]3O)cc1C(F)(F)F` (racemic) [Example 44, rac-(1R,2R,3S,4R,5S)—N-(4-ethoxy-3-(trifluormethyl)phenyl)-5-hydroxy-3-(1-methyl-3-(trifluoromethyl)-1H-pyrazol-4-yl)-7-oxabicyclo[2.2.1]heptane-2-carboxamide], in that order: 14 µM and 89%.
For `O=C(Nc1ccc(F)c(C(F)(F)F)c1)[C@@H]1[C@@H](c2cccc(C(F)(F)F)c2)[C@H]2O[C@@H]1C[C@@H]2O` (racemic) [Example 16, rac-(1R,2R,3S,4R,5S)—N-(4-fluoro-3-(trifluoromethyl)phen)-5-hydroxy-3-(3-(trifluoromethyl)phenyl)-7-oxabicyclo[2.2.1]heptane-2-carboxamide], in that order: 12 µM and 105%.
For `Cc1ccc(NC(=O)[C@@H]2[C@@H](c3cccc(C(F)(F)F)c3)[C@H]3O[C@@H]2C[C@@H]3O)cc1C(F)(F)F` (racemic) [Example 12, rac-(1R,2R,3S,4R,5S)-5-hydroxy-N-(4-methyl-3-trifluoromethylphenyl)-3-(3-(trifluoromethyl)phenyl)-7-oxabicyclo[2.2.1]heptane-2-carboxamide], for the setting “Chondrocyte, 288 h”, the IC50 was 9.8 µM and the Emax turned out to be 102%.
